This passage reports IC50 and AC50 results from ChEMBL document CHEMBL1201862, “PubChem BioAssay data set” (2004).

The source made the active and inactive calls.

For test [1], the target named is T1, Kappa-type opioid receptor (Homo sapiens, UniProt P41145). Put plainly: SAR analysis of Antagonists of the Kappa Opioid Receptor (KOR) using an Image-Based Assay - Set 3. [Related pubchem assays (depositor defined):AID1777, AID1785]. It counts as functional.
For test [2], the target named is T1, Kappa-type opioid receptor. In words: SAR analysis of small molecule antagonists of the kappa opioid receptor via a luminescent beta-arrestin assay - Set 3. [Related pubchem assays (depositor defined):AID1777, AID1778, AID1785, AID1786, AID1966, AID2133, AID2136, AID2285, AID2495]. The class given is functional.
Test [3] concerns the target Mu-type opioid receptor (Homo sapiens, UniProt P35372). In words: SAR Analysis of Antagonists of the MOR Receptor using an Image-Based Assay - Set 3. [Related pubchem assays (depositor defined):AID1777, AID1785, AID1786, AID1966, AID2133, AID2136, AID2284, AID2285, AID2420]. It counts as functional.
Test [4] addresses Delta-type opioid receptor (Homo sapiens, UniProt P41143). Put plainly: SAR Analysis of Antagonists of the DOR Receptor using an Image-Based Assay - Set 3. [Related pubchem assays (depositor defined):AID1777, AID1785]. The class given is functional.
Test [5] addresses Eukaryotic translation initiation factor 4H (Homo sapiens, UniProt Q15056). In words: eIF4H inhibition in translation initiation, SAR follow-up (AID 435011). The class given is functional.
Test [6] has as its target Polyadenylate-binding protein 1 (Homo sapiens, UniProt P11940). Put plainly: PABP inhibition in translation initiation, SAR follow-up (AID 435018). The class given is functional.
In test [7] the target is Large T antigen (Simian virus 40, UniProt P03070). It counts as functional, Betapolyomavirus macacae.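 Note: Confirmatory-stage PubChem screen for compounds that inhibit SV40 T antigen.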
Sequence of Large T antigen (P03070 whole entry): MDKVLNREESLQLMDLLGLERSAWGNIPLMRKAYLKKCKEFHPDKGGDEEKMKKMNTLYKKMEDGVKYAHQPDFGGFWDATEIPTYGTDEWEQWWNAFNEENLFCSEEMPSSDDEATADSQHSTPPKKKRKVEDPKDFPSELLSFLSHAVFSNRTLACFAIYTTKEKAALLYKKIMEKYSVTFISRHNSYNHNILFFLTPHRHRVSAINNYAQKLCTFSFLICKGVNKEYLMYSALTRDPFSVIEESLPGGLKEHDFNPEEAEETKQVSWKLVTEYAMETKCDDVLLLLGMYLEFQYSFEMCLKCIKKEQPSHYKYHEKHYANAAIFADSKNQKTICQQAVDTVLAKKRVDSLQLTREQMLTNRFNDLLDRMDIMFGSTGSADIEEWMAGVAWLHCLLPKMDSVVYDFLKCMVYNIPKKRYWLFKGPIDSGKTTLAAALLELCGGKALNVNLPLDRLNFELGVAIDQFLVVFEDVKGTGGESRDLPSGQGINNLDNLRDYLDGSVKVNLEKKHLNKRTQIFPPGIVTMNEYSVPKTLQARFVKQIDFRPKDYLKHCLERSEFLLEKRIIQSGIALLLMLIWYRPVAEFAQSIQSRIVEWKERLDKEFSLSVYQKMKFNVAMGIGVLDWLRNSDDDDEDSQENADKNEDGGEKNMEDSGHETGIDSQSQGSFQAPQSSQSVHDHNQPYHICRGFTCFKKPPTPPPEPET
Test [8] concerns the target T2, Caspase-3 (Homo sapiens, UniProt P42574).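 Note: Dose-response selectivity test against caspase-3 for candidate inhibitors of sentrin-specific proteases (SENPs).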
T2 sequence (P42574 whole entry): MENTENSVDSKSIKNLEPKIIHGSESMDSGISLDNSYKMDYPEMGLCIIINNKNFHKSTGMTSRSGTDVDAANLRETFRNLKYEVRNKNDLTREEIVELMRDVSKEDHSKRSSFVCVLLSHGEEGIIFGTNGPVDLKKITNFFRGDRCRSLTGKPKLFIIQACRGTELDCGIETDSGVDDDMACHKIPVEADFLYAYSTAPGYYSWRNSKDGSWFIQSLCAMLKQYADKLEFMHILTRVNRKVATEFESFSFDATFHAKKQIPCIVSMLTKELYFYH
It counts as functional.

The target of test [9] is T3, Sentrin-specific protease 6 (Homo sapiens, UniProt Q9GZR1).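 Note: Luminescence-based dose-response confirmatory assay of SENP6 inhibition, following up an ultra-high-throughput screen.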
T3 sequence (Q9GZR1 whole entry): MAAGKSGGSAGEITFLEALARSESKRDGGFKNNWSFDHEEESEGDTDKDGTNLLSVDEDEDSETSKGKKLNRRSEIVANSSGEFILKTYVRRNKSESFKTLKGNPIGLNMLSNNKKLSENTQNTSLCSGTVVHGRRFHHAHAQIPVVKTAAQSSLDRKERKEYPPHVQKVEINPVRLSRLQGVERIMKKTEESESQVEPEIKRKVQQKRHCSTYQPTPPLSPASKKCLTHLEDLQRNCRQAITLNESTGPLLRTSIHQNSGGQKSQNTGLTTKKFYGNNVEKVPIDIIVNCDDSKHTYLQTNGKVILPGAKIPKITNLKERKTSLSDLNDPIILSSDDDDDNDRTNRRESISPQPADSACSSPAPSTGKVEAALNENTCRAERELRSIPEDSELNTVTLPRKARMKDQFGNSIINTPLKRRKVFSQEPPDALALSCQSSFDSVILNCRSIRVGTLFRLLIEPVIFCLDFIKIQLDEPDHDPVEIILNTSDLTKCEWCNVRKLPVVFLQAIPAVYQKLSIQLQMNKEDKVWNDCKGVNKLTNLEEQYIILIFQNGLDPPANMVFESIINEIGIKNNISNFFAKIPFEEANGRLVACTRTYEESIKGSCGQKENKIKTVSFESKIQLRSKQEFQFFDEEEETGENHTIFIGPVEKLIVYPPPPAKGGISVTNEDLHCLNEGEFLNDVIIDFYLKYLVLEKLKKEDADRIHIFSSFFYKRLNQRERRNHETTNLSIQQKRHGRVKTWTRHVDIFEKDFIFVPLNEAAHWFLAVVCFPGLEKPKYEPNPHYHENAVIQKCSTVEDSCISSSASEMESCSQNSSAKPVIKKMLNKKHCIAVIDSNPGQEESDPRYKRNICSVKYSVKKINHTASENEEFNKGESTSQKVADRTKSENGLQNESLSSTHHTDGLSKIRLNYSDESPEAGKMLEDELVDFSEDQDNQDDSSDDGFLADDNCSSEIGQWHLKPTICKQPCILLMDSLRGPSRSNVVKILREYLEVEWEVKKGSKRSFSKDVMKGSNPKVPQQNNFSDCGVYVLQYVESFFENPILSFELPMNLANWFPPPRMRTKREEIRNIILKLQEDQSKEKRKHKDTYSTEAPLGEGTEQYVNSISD
It counts as functional.

For test [10], the target named is T4, Sentrin-specific protease 7 (Homo sapiens, UniProt Q9BQF6).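 Note: Luminescence-based dose-response confirmation of ultra-high-throughput screening hits, measuring inhibition of SENP7.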
T4 sequence (Q9BQF6 whole entry): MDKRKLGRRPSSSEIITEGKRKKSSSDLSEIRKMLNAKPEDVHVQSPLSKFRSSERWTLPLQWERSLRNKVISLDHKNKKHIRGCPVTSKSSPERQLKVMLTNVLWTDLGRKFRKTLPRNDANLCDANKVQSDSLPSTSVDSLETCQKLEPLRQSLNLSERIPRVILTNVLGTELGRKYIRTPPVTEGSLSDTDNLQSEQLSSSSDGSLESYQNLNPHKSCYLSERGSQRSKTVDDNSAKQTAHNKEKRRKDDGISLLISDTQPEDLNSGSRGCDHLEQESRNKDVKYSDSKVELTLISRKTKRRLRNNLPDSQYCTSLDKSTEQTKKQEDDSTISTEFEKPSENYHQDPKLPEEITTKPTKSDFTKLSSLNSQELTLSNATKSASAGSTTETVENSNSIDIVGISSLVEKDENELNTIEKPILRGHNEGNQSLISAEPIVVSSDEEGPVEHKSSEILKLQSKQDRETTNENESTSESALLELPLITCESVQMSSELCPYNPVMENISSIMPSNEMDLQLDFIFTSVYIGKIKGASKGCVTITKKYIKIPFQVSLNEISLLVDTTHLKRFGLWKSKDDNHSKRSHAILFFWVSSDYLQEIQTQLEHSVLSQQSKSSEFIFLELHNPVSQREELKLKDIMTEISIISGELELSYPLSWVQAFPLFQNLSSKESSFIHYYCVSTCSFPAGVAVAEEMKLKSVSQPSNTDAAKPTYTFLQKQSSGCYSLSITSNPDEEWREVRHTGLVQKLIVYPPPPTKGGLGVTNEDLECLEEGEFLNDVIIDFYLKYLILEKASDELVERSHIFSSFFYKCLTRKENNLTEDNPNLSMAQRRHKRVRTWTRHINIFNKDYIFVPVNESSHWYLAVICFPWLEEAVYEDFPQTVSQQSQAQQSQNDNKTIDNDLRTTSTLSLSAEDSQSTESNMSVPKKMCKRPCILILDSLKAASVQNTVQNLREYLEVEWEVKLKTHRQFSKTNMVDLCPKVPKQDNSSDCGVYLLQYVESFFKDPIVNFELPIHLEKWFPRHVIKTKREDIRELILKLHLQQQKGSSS
The class given is functional.

For test [11], the target named is Bcl-2-like protein 10 (Homo sapiens, UniProt Q9HD36). In words: displacers of TR3 peptide from Bcl-B, primary screen, selectivity assay for Bfl-1 inhibitor project, biochemical, fluorescence polarization, FITC-TR3 peptide (AID 748).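 Note: fluorescence polarization from a fluorescein-labelled TR3 peptide binding purified Bcl-B.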 For orientation: Polarisation of emitted light reports the rotation of a fluorescent probe.
Sequence of Bcl-2-like protein 10 (Q9HD36 whole entry): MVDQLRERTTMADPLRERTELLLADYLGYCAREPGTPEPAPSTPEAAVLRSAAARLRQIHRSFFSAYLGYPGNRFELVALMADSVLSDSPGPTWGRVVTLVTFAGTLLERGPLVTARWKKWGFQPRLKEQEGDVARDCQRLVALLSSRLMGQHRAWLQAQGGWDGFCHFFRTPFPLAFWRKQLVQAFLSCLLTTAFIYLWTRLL
The target of test [12] is T5, Sentrin-specific protease 8 (Homo sapiens, UniProt Q96LD8).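 Note: luminescence read-out of SENP8 inhibition, dose-response confirmation following an ultra-high-throughput screen.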
T5 sequence (Q96LD8 whole entry): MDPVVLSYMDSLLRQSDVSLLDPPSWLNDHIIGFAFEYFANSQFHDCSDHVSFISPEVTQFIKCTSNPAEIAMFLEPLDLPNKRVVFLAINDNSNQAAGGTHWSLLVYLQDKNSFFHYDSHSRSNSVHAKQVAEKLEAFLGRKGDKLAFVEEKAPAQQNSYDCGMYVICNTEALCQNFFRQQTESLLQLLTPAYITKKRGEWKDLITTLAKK
It counts as functional.

The target in test [13] is CAAX prenyl protease 2 (Saccharomyces cerevisiae S288c, UniProt Q03530). It counts as biochemical.
Sequence of CAAX prenyl protease 2 (Q03530 whole entry): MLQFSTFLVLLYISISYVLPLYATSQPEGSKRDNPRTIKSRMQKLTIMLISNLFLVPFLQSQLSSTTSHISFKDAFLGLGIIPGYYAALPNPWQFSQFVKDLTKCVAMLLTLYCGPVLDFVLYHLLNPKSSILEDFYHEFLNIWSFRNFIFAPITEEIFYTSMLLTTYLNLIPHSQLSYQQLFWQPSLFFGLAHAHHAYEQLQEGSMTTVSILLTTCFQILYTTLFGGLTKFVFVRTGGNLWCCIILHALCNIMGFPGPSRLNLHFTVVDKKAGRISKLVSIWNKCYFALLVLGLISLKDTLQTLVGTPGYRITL

T1 sequence (P41145 whole entry): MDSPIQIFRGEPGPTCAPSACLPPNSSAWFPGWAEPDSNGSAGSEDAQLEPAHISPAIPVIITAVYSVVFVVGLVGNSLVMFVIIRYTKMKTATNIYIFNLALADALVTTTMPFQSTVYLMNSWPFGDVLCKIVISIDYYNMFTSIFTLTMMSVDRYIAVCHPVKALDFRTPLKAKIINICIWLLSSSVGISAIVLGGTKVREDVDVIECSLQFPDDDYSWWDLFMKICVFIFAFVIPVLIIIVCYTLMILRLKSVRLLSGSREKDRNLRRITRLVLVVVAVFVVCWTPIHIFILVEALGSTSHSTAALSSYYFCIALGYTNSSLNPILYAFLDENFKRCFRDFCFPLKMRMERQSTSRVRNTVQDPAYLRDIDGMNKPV
Sequence of Polyadenylate-binding protein 1 (P11940 whole entry): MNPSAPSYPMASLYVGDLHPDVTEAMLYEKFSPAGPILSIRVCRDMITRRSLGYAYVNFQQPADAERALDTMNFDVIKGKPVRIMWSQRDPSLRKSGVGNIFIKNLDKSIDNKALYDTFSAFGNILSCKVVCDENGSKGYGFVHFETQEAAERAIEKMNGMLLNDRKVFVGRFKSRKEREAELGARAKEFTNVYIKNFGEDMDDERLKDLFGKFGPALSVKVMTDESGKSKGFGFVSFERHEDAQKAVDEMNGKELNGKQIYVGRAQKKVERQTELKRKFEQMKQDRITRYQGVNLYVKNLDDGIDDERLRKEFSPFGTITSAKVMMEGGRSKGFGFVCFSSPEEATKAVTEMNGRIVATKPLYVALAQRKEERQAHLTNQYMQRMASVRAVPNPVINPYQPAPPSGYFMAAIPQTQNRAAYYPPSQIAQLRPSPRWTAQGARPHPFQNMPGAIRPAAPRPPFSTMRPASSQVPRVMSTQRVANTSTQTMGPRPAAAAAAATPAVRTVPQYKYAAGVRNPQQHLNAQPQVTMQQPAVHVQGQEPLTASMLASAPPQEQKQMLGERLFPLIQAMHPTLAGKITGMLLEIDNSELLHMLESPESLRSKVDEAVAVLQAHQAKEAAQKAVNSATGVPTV
Sequence of Delta-type opioid receptor (P41143 whole entry): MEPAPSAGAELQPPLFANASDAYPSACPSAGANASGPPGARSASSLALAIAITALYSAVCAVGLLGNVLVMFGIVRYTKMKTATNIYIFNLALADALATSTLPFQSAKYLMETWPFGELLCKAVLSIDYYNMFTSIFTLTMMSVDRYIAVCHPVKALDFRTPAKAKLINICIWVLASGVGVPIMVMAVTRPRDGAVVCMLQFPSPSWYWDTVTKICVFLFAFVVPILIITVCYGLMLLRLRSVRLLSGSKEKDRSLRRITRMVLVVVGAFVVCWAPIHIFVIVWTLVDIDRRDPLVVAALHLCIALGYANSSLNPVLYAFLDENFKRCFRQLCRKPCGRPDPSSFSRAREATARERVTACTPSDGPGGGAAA
Sequence of Mu-type opioid receptor (P35372 whole entry): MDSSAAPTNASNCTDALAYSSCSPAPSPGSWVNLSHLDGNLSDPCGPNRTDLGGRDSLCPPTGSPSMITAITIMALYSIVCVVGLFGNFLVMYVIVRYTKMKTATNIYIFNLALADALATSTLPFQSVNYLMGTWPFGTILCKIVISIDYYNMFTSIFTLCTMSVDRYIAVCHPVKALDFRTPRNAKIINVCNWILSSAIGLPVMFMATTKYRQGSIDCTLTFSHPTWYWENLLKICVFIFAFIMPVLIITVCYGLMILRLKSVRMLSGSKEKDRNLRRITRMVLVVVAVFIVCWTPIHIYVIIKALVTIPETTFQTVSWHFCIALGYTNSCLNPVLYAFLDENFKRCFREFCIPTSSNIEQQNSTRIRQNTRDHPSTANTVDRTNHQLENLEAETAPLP

For orientation: IC50 means the concentration that inhibits the measured activity by half. As for `O=C(NCCN1Cc2ccccc2C1)c1ccc(CNS(=O)(=O)c2ccc(Br)cc2)cc1`, the IC50 is > 32 µM (inactive) in [1], > 20 µM (inactive) in [2], > 32 µM (inactive) in test [3] and > 32 µM (inactive) in [4].
Take `CS(=O)(=O)c1ccccc1C(=O)Nc1cccc2ncccc12`: the figures for the IC50 in [5] and in test [6] were 16.1 µM (active) and 20.2 µM (active), respectively.
Take `CN1CCN(CCCNC(=O)Cn2c(=O)c3cccn3c3cccnc32)CC1`: the IC50 in test [1] is > 32 µM (inactive); in [2], > 20 µM (inactive); in [3], > 32 µM (inactive); in [4], > 32 µM (inactive).
Consider `O=C(Nc1ccccc1Cl)C1CCN(C(=O)c2cccs2)CC1`, for which the IC50 in test [5] and in test [6] was > 100 µM (inactive) each time.
Turning to `Cc1csc(N/N=C/c2ccc(O)c([N+](=O)[O-])c2)n1`, the IC50 in [7] was 22.1 µM (active); in test [8] it was 3.15 µM (active); in [9], 9.25 µM (active); in test [10], 4.19 µM (active); in test [11], > 100 µM (inactive); in test [12], 8.45 µM (active).
One may read the AC50 as the midpoint of the concentration-response curve, whichever way the signal moves. For the molecule `O=S(=O)(c1ccccc1)c1nc(-c2ccco2)oc1N1CCCCC1`, in [13], the AC50 is 7.38 µM (active).
